The supplement of paper PMC6206229
In brackets after ≈: the same amount, converted by molar mass.

Columns and labels:
[1] = test system: Staphylococcus aureus ATCC 700699 (MRSA); experiment: minimum inhibitory concentration; extreme values may be limits of the assay
Method in brief: (§1)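 The minimum inhibitory concentration was defined as the lowest concentration whose well remained blue rather than becoming pink. It was measured against methicillin-susceptible and methicillin-resistant Staphylococcus aureus by broth microdilution in 96-well plates according to CLSI guidance, with compounds at 0 to 100 µM incubated for 24 h at 37°C before 30 µl of 0.015% resazurin was added for 2–4 h. Each plate included positive controls.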

[2] = test system: Staphylococcus aureus ATCC 29213 (MSSA); experiment: as above
Method in brief: as §1

| SMILES | minimum inhibitory concentration [1] [µM] | minimum inhibitory concentration [2] [µM] |
| --- | --- | --- |
| COc1ccc(-c2cncc3ccc(C(=O)NCCCn4ccnc4)nc23)cc1 | > 50 | > 50 |
| c1ccc2c(c1)CN(CC1CC1)CC1(CCN(Cc3c[nH]c4cnccc34)CC1)O2 | 50 (≈ 20.1 µg/mL) | 50 (≈ 20.1 µg/mL) |
| OCc1ccc(-c2cncc(Nc3cccc(Cl)c3)c2)cc1 | > 50 | > 50 |
| Cc1ccc(Oc2ccc(NC(=O)CNc3ccccc3N3CCCC3=O)cc2)cc1 | > 50 | > 50 |
| O=C(NCc1ccco1)N1CCN(Cc2ccc(Cl)s2)CC1 | > 50 | > 50 |
| C[C@H](C(N)=O)N1CCCC[C@@H]1c1ccc(OCc2cccc(F)c2)cc1 | > 50 | > 50 |
| CCN(CC)CCCCCCNc1cc(OC)cc2c(C)ccnc12 | > 50 | > 50 |
| FC(F)(F)c1nnc2ccc(Cl)nn12 | > 50 | > 50 |
| CCC(=O)Nc1ccccc1C(=O)Nc1ccccn1 | > 50 | > 50 |
| Nc1ncnc2c1c(Cc1cccc3ccccc13)nn2CC1CCNCC1 | > 50 | > 50 |
| Cc1nn2c(=O)c3c([nH]c2c1-c1ccc(Cl)cc1)CCCC3 | > 50 | > 50 |
| Cc1ccc(S(=O)(=O)Nc2ccc(CN3CCN(C(=O)c4cccc(C#N)c4)CC3)cc2)cc1 | > 50 | > 50 |
| CCNC(=O)C(C)Nc1nc(-c2cccnc2)nc2sc(C)c(C)c12 (stereo not given) | > 50 | > 50 |
| C[C@H](C(N)=O)N1CCCC[C@H]1c1ccc(OCc2cccc(F)c2)cc1 | > 50 | > 50 |
| Cc1cc(C)n(-c2ccc(NC(=O)C3CCN(Cc4cnc(C)s4)CC3)cc2)n1 | > 50 | > 50 |
| O=C(NCCc1ccn(-c2ccccc2)n1)C1CCCCC1 | > 50 | > 50 |
| c1ccc(C[C@@H]2CN(c3nccc(Oc4ccc(-n5ccnc5)cc4)n3)CCN2)cc1 | > 50 | > 50 |
| Clc1ccc(CN2CCN(C3=NCCN3)CC2)cc1Cl | > 50 | > 50 |
| Cc1cc(C)nc(-n2nc(C)cc2Nc2ccccc2)n1 | > 50 | > 50 |
| COc1ccc(-c2nnc3ccc(-c4cccc(C(C)C)c4)cn23)cc1OC | > 50 | > 50 |
| COc1ccc(C2CC(c3cccs3)=NN2C(=O)c2ccco2)cc1OC (stereo not given) | > 50 | > 50 |
| NCCC(O)C(=O)N[C@@H]1C[C@H](N)[C@@H](OC2O[C@H](CN)[C@@H](O)[C@H](O)[C@H]2O)[C@H](O)C1OC1O[C@H](CO)[C@@H](O)[C@H](N)[C@H]1O (stereo not given in full) | > 50 | > 50 |
| O=C(NCCc1ccccc1)c1cc(-c2cccnc2)cnc1NCC1CC1 | > 50 | > 50 |
| CN(C)CCNC(=O)N1CCCN(c2ncnc3cc(-c4ccccc4)sc23)CC1 | > 50 | > 50 |

| SMILES | minimum inhibitory concentration [1] [µM] | minimum inhibitory concentration [2] [µM] |
| --- | --- | --- |
| O=C(C1CCN(c2nnc(-n3cccc3)s2)CC1)N1CCC(Cc2ccccc2)CC1 | > 50 | > 50 |
| CNc1snc(C)c1C(=O)NCCOc1ccc(OC)cc1 | > 50 | > 50 |
| CCN(CC)S(=O)(=O)c1ccc(Cl)c(C(=O)Nc2ccc3nc(C)sc3c2)c1 | > 50 | > 50 |
| O=C(c1cc2ccccc2o1)N1CCN(Cc2ccc3c(c2)OCO3)CC1 | > 50 | > 50 |
| COc1cccc(OC)c1C(=O)Nc1ccc(Cl)c(-c2nc3ccccc3s2)c1 | > 50 | > 50 |
| COc1cc(C2=NCCN2)ccc1-c1cn(-c2cccc(C3=NCCN3)c2)nn1 | > 50 | > 50 |
| CC(C)(C)CN1C(=O)C(c2ccccc2)(c2ccccc2)N=C1N | > 50 | > 50 |
| CC1COC2(CCN(c3nc(=O)c4cc(C(F)(F)F)cc([N+](=O)[O-])c4s3)CC2)O1 (stereo not given) | > 50 | > 50 |
| Cc1nnc(NCc2cccc(Cl)c2)c2ccccc12 | > 50 | > 50 |
| Cc1cc(Cl)c(S(=O)(=O)N2CCCC2)cc1OCC(=O)NC1CCCCC1 | > 50 | > 50 |
| Nc1ncc(Br)cc1-c1nc2cc(Cl)cnc2[nH]1 | > 50 | > 50 |
| O=C(c1[nH]nc2c1CCCC2)N1CCN(Cc2ccc3c(c2)OCO3)CC1 | > 50 | > 50 |
| COc1ccc(C2=NCCN2)cc1-c1cn(-c2cccc(C3=NCCN3)c2)nn1 | > 50 | > 50 |
| CC(=O)Nc1ccc(NC(=O)c2cc(-c3cc(Cl)ccc3O)n[nH]2)cc1 | > 50 | > 50 |
| CC(C)n1ncc2c(C(=O)NCC(c3cccs3)N3CCOCC3)cc(-c3ccccc3)nc21 (stereo not given) | > 50 | > 50 |
| Cc1cc2ccccc2n1CC(=O)N1CC(C(=O)N2CCCCC2)Oc2ccccc21 (stereo not given) | > 50 | > 50 |
| Cc1nn(C)cc1C(C)Nc1nncc(-c2ccc(C(F)(F)F)cc2)n1 (stereo not given) | > 50 | > 50 |
| Clc1ccc(CCNc2cc(-c3ccccc3)nc3ncnn23)cc1 | > 50 | > 50 |
| COc1ccc(-c2cnc3ccc(N4CCCC4)nn23)cc1OC | > 50 | > 50 |
| Nc1c2c(nc3sc4c(c13)CCCC4)CCCC2 | > 50 | > 50 |
| CCC(C)NC(=O)c1ccc(NC(=O)C2(c3ccccc3)CCCC2)cc1 (stereo not given) | > 50 | > 50 |
| Cc1nc2ccccn2c1C(=O)NCc1ccc(Cl)cc1 | > 50 | > 50 |
| COc1ccc(-c2onc(C(F)(F)F)c2-c2ccc(Cl)cc2)c(O)c1 | > 50 | > 50 |
| CCCCCCCCCCCCCCCCOP(=O)([O-])OCC[N+](C)(C)C | > 50 | > 50 |

| SMILES | minimum inhibitory concentration [1] [µM] | minimum inhibitory concentration [2] [µM] |
| --- | --- | --- |
| Nc1nccc2ccc(-c3ccc4nccn4c3)cc12 | > 50 | > 50 |
| CC1COC(Cn2cncn2)(c2ccc(Oc3ccc(Cl)cc3)cc2Cl)O1 (stereo not given) | > 50 | > 50 |
| CC(C)c1ncc(-c2ccncc2)c([C@H]2CC[C@H](CNC(=O)c3cccnc3)CC2)n1 | > 50 | > 50 |
| Nc1nc(N)c2c3c(sc2n1)CN(Cc1ccccc1)CC3 | > 50 | > 50 |
| CCc1nc2ccccc2n1CC(O)COc1cc(C)ccc1Cl (stereo not given) | > 50 | > 50 |
| COc1cccc(-c2nc3c(N4CCCC4)cccc3n2CC2CCCN2)n1 (stereo not given) | 50 (≈ 18.9 µg/mL) | 25 (≈ 9.44 µg/mL) |
| O=C1Nc2ccc(Br)cc2C12NCCc1c2[nH]c2ccccc12 (stereo not given) | > 50 | > 50 |
| CCc1nc2ccc(C(=O)NCc3ccc4c(c3)OCO4)cn2c1N(C)Cc1cccs1 | > 50 | > 50 |
| Cc1cc(OCC(=O)NCc2ccccc2)c2cc(Br)ccc2n1 | > 50 | > 50 |
| COc1cccc(-n2nnnc2S(C)(=O)=O)c1 | > 50 | > 50 |
| NS(=O)(=O)c1cncc(-c2ccc3nccc(-c4cn[nH]c4)c3n2)c1 | > 50 | > 50 |
| CO[C@@H]1CN(c2ccc(C#CC3(O)CN4CCC3CC4)c(Cc3ccccc3)n2)C[C@H]1O (stereo not given in full) | > 50 | > 50 |
| Cc1cc(C)c2cc(C(=O)NC3CCCCCCC3)[nH]c2c1 | > 50 | > 50 |
| O=C(c1ccc(F)cc1)N(CCNc1ccccc1)c1ccccc1 | > 50 | > 50 |
| CC(C)(C)n1nc(Cc2ccc(F)c(Cl)c2)c2c(N)ncnc21 | > 50 | > 50 |
| CC1(C)Cc2c(c(N3CCOCC3)nc3snc(Br)c23)CO1 | > 50 | > 50 |
| CN1CCN(S(=O)(=O)c2ccc(-c3ccc4c(Nc5ccc6nn[nH]c6c5)ccnc4c3)cc2)CC1 | > 50 | > 50 |
| COC(=O)c1ccc(F)cc1NS(=O)(=O)c1cccc(-c2cnn(Cc3ccccc3)c2)c1 | > 50 | > 50 |
| COc1ccc(Cl)cc1NC(=O)CN(C)C(=O)c1cnn(-c2ccccc2)n1 | > 50 | > 50 |
| Cc1nn(C(=O)Nc2cccc(C(F)(F)F)c2)c(C)c1Sc1ncccn1 | > 50 | > 50 |
| O=C(OCc1ccccc1)N1CCC(c2cc(-c3ccncc3)c(-c3ccc(F)cc3)[nH]2)CC1 | > 50 | > 50 |
| Nc1ccc2ncnc(Nc3ccc(OCc4cccc(F)c4)c(Cl)c3)c2c1 | > 50 | > 50 |
